# Measurements taken from US20120114636A1, “LOW MOLECULAR WEIGHT CYCLIN E (LMW-E) AS A BIOMARKER FOR PERSONALIZATION OF CANCER THERAPIES” (The Board of Regents of the University of Texas System, priority 2009, published 2012).
# Key:
# Format in all cases: cell-based, human
# [1] = system: CDK2 kinase activity in MCF-7/Ac1 cells; assay: CDK2 kinase assay in LacZ or cyclin E-T1 adenovirus-infected cells; conditions: 1 μM letrozole
# Procedure: MCF-7/Ac1 cells were cultured in IMEM with 10% charcoal-stripped serum medium (CSSM) without phenol red and with 600 μg/ml of G418 for 4 days before plating. Plates were then infected with LacZ (4000 m.o.i) or increasing concentration of cyclin E-T1 adenoviruses 24 hours before drug treatment. Cells were then left untreated (E2W, estrogen withdrawal) or treated with 25 nM AD (AD) or treated with 25 nM AD and 1 μM letrozole (AD+Let) and collected 3 days later for CDK2 kinase activity. CDK2 kinase assays were performed by immunoprecipitating equal amounts of cell lysate (250 μg) with monoclonal antibodies to CDK2 (D12, sc-6248) coupled to protein G beads, using histone H1 as substrate. The bar graph represents the densitometric values of the phosphorylated histone H1 substrate.
# [2] = system: cyclin E and CDK2 complexes in MCF-7/Ac1 cells; assay: Immunoprecipitation of cyclin E or CDK2 followed by western blot for p21 and p27
# Procedure: Immunoprecipitation and Immunoblotting. Two hundred fifty μg of cell extracts were used per immunoprecipitation with polyclonal antibody to cyclin E or polyclonal antibody to CDK2, coupled to protein A beads. After being washed, the immunoprecipitates were subjected to electrophoresis in 13% gels, transferred to Immobolin P, blocked, and incubated with the indicated antibodies as already described.
# (§1) MCF-7/Ac1 cells were treated with the indicated concentrations of letrozole and AD for 3 days. Cyclin E kinase assays were performed by immunoprecipitating equal amounts of cell lysate (250 μg) with monoclonal antibodies to cyclin E coupled to protein A beads, using histone H1 as substrate. […] The same cell lysates were subjected to western blot analysis (50 μg of protein) with the indicated antibodies. […] The same cell lysates were first immunoprecipitated with cyclin E followed by western blot for p21 and p27. […] The same cell lysates were first immunoprecipitated with CDK2 followed by western blot for p21 and p27. The levels of proteins were measured by densitometric scanning of the corresponding bands and normalized using actin values. The values indicated at the bottom were compared to the values obtained with untreated cells.
# [3] = system: CDK2 protein in MCF-7/Ac1 cells; assay: Western blot of CDK2 protein levels in adenovirus-infected cells; conditions: letrozole
# Procedure: (§2) Western blot analysis. Cell lysates were prepared and subjected to western blot analysis as described previously (Akli et al., 2004). Briefly, 50 μg of protein were subjected to electrophoresis on SDS-PAGE and transferred to Immobilon P overnight at 4° C. at […] constant voltage. The blots were blocked overnight at 4° C. in BLOTTO [5% nonfat dried milk in 20 mM Tris, 137 mM NaCl, and 0.05% Tween (pH 7.6)]. After being washed, the blots were incubated in primary antibodies for 3 h. Primary antibodies used were cyclin E (HE-12; Santa Cruz Biotechnology), p21 (0P64; Oncogene Research Products, Boston, Mass.), p27 (K25020; BD Biosciences-Transduction Laboratories, Lexington, Ky.), cyclin-dependent kinase 2 (CDK2; Transduction Laboratories), and actin (Chemicon International, Inc., Temecula, Calif.). Blots were then incubated with goat anti-mouse or anti-rabbit immunoglobulin-horseradish peroxidase conjugate at a dilution of 1:5000 in BLOTTO for 1 h and finally washed and developed by using the Renaissance chemiluminescence system as directed by the manufacturer (Perkin-Elmer Life Sciences, Inc., Boston, Mass.). Western blots were quantitated by densitometric analysis using IPLab Gel software (Scientific Image Processing, Vienna, Va.). Densitometric values of actin were used to standardize for equal protein loading. These values were introduced into the software Graph-Pad Prism version 4.0 (GraphPad Software, Inc., San Diego, Calif.) for statistical analysis.
# MCF-7/Ac1 cells were cultured in IMEM with 10% charcoal-stripped serum medium (CSSM) without phenol red and with 600 μg/ml of G418 for 4 days before plating. […] Cells were then infected with the indicated adenoviruses (at 4000 m.o.i.) 24 hours before drug treatment.
# MCF-7/Ac1 cells [4] = assay: Cell cycle analysis by flow cytometry (PI); conditions: letrozole with 25 nM AD, concentration not given
# Procedure: Cell cycle analysis. MCF-7/Ac1 cells were cultured in estrogen-deprived media with or without 25 nM 4-androstenedione, and treated with different concentrations of aromatase inhibitors. Untreated and drug treated cells were collected 72 hours later for flow cytometry and lysates were prepared for western blot and kinase assays.
# Flow cytometry analysis. Cells were pelleted and resuspended in 1.5 ml of PBS, then fixed in 3.5 ml of 95% ethanol overnight at −20° C. After being washed, the pellets were resuspended in a solution of PBS containing 10 μg/ml propidium iodide, 20 μg/ml RNase A, 0.5% Tween 20, and 0.5% BSA and incubated at 37° C. for 30 min. The profiles of cells in the G0-G1, S, and G2-M phases of the cell cycle were analyzed at the M. D. Anderson Cancer Center Cytometry Core Facility on a FACS Caliber machine equipped with Cellquest or ModFit software.
# FIGS. 22A-22C show the effect of aromatase inhibitor treatment on proliferative response and cell cycle distribution of MCF-7/Ac1 cells. Cells were cultured in IMEM with 10% charcoal-stripped serum medium (CSSM) without phenol red and with 600 μg/ml of G418 for 4 days before plating. Cells (100,000) were seeded in 100 mm dishes and, 24 hrs later, were exposed for 3 days to the specific treatment. […] Cell growth is expressed as the percentage of the cells compared with the control cells (25 nM AD treated cells, 575,000 cells at day 3). Columns, mean of two to three experiments, each in triplicates; bars, S.D. *, P<0.05, when compared to cells only treated with 25 nM AD; n.s, not significant. CSSM, untreated cells cultured in charcoal-stripped serum medium without phenol red and with 600 μg/ml of G418.
# MCF-7/Ac1 cells [5] = assay: Western blot of CDK2, phospho-CDK2, cyclin E, pRb
# Procedure: (§3) FIG. 28. Effect of increasing concentrations of letrozole in the presence of 25 nM AD on CDK2 kinase activity, activated CDK2 and Rb phosphorylation of MCF7/Ac1 human breast cancer cells. MCF-7/Ac1 cells were treated with the indicated concentrations of letrozole and AD for 3 days. CDK2 kinase assays were performed by immunoprecipitating equal amounts of cell lysate (250 μg) with monoclonal antibodies to CDK2 (D12, sc-6248) coupled to protein G beads, using histone H1 as substrate. […] The same cell lysates were subjected to western blot analysis (50 μg of protein) with the indicated antibodies.
# as §2, §1
# [6] = system: CDK2-associated kinase activity in MCF-7/Ac1 cells; assay: CDK2-associated kinase assay (histone H1); conditions: with 25 nM AD, 3 days
# Procedure: as §3
smiles,measurement,setting,value
N#Cc1ccc(C(c2ccc(C#N)cc2)n2cncn2)cc1 [letrozole],block of CDK2 kinase activity,"[1]; LMW cyclin E (T1) expressing cells, any m.o.i",cannot block
same,block of AD-induced increase in CDK2 kinase activity,[1]; LacZ expressing cells,completely blocks
same,p21 binding to both cyclin E and CDK2,[2]; letrozole with 25 nM AD,slightly decreased
same,increase in p27 binding to both cyclin E and CDK2 over levels in AD treated cells,"[2]; letrozole, dose-dependent, with 25 nM AD",up to 2 fold
same,CDK2 protein levels,"[3]; LMW cyclin E (T1, T2) overexpressing cells",did not drop following letrozole treatment
same,"total CDK2 protein levels, percent of the level in untreated, uninfected cells",[3]; cyclin EL overexpressing cells,50%
same,"total CDK2 protein levels, percent of the level in uninfected cells",[3]; uninfected and LacZ infected cells,10%
same,cells in G0/G1,MCF-7/Ac1 cells [4],61.2+/−1.5%
same,cells in S phase,MCF-7/Ac1 cells [4],13.1+/−2.3%
same,cyclin E protein levels,MCF-7/Ac1 cells [5]; 0.5 μM letrozole with 25 nM AD,slightly decreased
same,effect on AD-induced increase in CDK2 protein levels,MCF-7/Ac1 cells [5]; increasing letrozole with 25 nM AD,blocked the increase in CDK2 protein levels in a dose dependent manner
same,phosphorylation of endogenous CDK2 substrate pRb,MCF-7/Ac1 cells [5]; letrozole with 25 nM AD,decreased phosphorylation
same,concentration that blocked the AD-induced increase in CDK2-associated kinase activity,[6],≤ 0.125 µM
